Assay results: patent US20250179210A1, “ANTI-CEACAM5 ANTIBODIES AND CONJUGATES AND USES THEREOF” (Merck Patent GmbH, priority 2022, published 2025)
pIC50: −log10 of the molar value. Where “and” joins values, the source holds several entries; their conditions need not be identical. Identical values can stand only once.

Columns and labels:
MKN-45 = assay: Viability assay (Cell Titer-Glo); format: cell-based; conditions: Homo sapiens
Description: (§1) Cytotoxicity effects of the ADC on the cancer cell lines were measured by cell viability assays. Cells were seeded in a volume of 90 μL in 96-well plates the day before treatment. Test compounds (ADCs or free payloads) were formulated at 10-fold the starting concentration in cell culture medium. Test compounds were serial diluted (1:4) and 10 μL of each dilution was added to the cells in triplicates. Plates were cultured at 37° C. in a CO2 incubator for six days. For cell viability measurement, Cell Titer-Glo® reagent (Promega™ Corp, Madison, WI) was added to each well, and plates processed according to the manufacturer's instructions. Luminescence signals were measured using a Varioskan plate reader (Thermo Fisher). Luminescence readings were converted to % viability relative to untreated cells. Data was fitted with non-linear regression analysis, using log (inhibitor) vs. response, variable slope, 4-parameter fit equation using GraphPad Prism. […] Geometric mean values of IC50s derived from multiple experiments were calculated.
(§2) Cytotoxicity effects of the ADC on the cancer cell lines were measured by cell viability assays. […] Luminescence signals were measured using a Varioskan plate reader (Thermo Fisher). Luminescence readings were converted to % viability relative to untreated cells. […] Geometric mean values of IC50s derived from multiple experiments were calculated.

SNU-16 = assay: Viability assay (Cell Titer-Glo); format: cell-based, human
Description: as §1, §2

MDA-MB-468 = assay: Viability assay (Cell Titer-Glo); format: cell-based; conditions: Homo sapiens, Table 2
Description: Cytotoxicity effects of the ADC on the cancer cell lines were measured by cell viability assays. Cells were seeded in a volume of 90 μL in 96-well plates the day before treatment. Test compounds (ADCs or free payloads) were formulated at 10-fold the starting concentration in cell culture medium. Test compounds were serial diluted (1:4) and 10 μL of each dilution was added to the cells in triplicates. Plates were cultured at 37° C. in a CO2 incubator for six days. For cell viability measurement, Cell Titer-Glo® reagent (Promega™ Corp, Madison, WI) was added to each well, and plates processed according to the manufacturer's instructions. Luminescence signals were measured using a Varioskan plate reader (Thermo Fisher). Luminescence readings were converted to % viability relative to untreated cells. Data was fitted with non-linear regression analysis, using log (inhibitor) vs. response, variable slope, 4-parameter fit equation using GraphPad Prism. Data is shown as % relative cell viability vs. molar compound concentration, error bars indicating standard deviation (SD) of triplicates. Geometric mean values of IC50s derived from multiple experiments were calculated.

LS174T = assay: Viability assay (Cell Titer-Glo); format: cell-based; conditions: Homo sapiens
Description: as §1, §2

MDA-MB-231 = assay: Viability assay (Cell Titer-Glo); format: cell-based; conditions: Homo sapiens, MDA-MB-231, 144 h; Table 2; six days; geometric mean; N ≥ 3; CEACAM5 Negative
Description: as §1, §2

SK-CO-1 = assay: Viability assay (Cell Titer-Glo); format: cell-based; conditions: Homo sapiens
Description: as §1, §2

[1] = background; cited from earlier work
[2] = system: CEACAM5 from Macaca fascicularis; conditions: background; cited from earlier work
MKN45 cells = assay: Internalization assay using Cell Discoverer (pHrodo labeled antibodies); format: cell-based, human
From the text: A relevant characteristic of an ADC is its internalization into a target-expressing cell and lysosomes, and thus internalization is a relevant property of antibodies to be used as part of ADCs. Antibody internalization rate into the late endosome and lysosome (low pH vesicles) can be monitored by directly labeling the antibodies with a pH-sensitive dye (pHrodo) which emits strong fluorescence at a pH lower than 6.0 upon excitation. This fluorescence can be imaged in the Cell-Discoverer7 (Zeiss) and internalization rate can be calculated.
To analyze the internalization rates of several antibodies, MKN45 cells were seeded in a 96 well, dark, flat clear bottom plate (Cellvis) at 25,000 cells/well. Cells were cultivated over night with 100 μl/well of RMPI-1640+10% FBS (Thermo). Cell media was removed, and cells were stained with 100 μl of 10 μg/ml Hoechst dye diluted in PBS×1 for 15 min at room temperature (RT) in the dark. Cells were then washed twice with PBS×1. […]
Internalization of pHrodo labeled antibodies into the late endosomes and lysosomes of cells was imaged by Cell-Discoverer7 (Zeiss) using fluorescence at excitation of 567 nm and emission detector of 592/25 nm. […]
Fluorescence of each well was recorded every 20 min for 20 h. Analysis of Sum Fluorescence Intensity per cell (SFI) was calculated by the Zen Software (ZEN3.1) and Excel analysis of linear regression.

Sequence of CEACAM5 from Macaca fascicularis (as listed by the source): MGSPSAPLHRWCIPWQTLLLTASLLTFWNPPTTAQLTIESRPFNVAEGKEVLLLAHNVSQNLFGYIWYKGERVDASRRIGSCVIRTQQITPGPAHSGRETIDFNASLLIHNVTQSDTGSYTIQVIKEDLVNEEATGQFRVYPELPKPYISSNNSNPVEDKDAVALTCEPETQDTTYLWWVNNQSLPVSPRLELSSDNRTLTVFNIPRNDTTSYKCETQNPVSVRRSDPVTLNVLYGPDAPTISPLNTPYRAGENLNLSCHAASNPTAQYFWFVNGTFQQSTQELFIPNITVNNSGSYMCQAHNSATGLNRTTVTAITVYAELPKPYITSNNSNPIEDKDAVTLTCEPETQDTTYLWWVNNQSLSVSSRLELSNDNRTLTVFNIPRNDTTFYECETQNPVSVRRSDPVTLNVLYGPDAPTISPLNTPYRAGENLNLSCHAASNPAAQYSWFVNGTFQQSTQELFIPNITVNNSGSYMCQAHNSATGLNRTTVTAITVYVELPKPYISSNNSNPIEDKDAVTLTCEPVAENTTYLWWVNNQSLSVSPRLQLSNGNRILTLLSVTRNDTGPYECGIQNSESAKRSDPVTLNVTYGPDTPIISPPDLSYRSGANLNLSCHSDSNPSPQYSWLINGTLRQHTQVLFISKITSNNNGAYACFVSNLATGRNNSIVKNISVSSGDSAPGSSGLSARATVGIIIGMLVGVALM

CC[C@@]1(O)C(=O)OCc2c1cc1n(c2=O)Cc2c-1nc1cc(F)c(C)c3c1c2[C@@H](N)CC3 [PAYLOAD, (1S,9S)-1-Amino-9-ethyl-5-fluoro-1,2,3,9,12,15-hexahydro-9-hydroxy-4-methyl-10H,13H-benzo(de)pyrano(3′,4′:6,7)indolizino(1,2-b)quinoline-10,13-dione, reference compound]
pIC50 (MKN-45; MKN-45, 144 h, Table 2, six days, geometric mean, N ≥ 3, CEACAM5 Positive): 9.05
Emax (MKN-45; MKN-45, Table 2, at the highest tested compound concentration, read-out: MKN-45 maximal effect compared to untreated controls): -96%
pIC50 (SNU-16; Homo sapiens, SNU-16, 144 h, Table 2, six days, geometric mean, N ≥ 3, CEACAM5 Positive): 9.36
SNU-16 maximal effect compared to untreated controls (SNU-16; Table 3, at the highest tested compound concentration): (−99%)
pIC50 (MDA-MB-468; MDA-MB-468, 144 h, six days, geometric mean, N ≥ 2, CEACAM5 Negative): 9.68
Emax (MDA-MB-468; MDA-MB-468, at the highest tested compound concentration, read-out: MDA-MB-468 maximal effect compared to untreated controls): -99%
pIC50 (LS174T; 144 h, Table 2, six days, geometric mean, N ≥ 3, CEACAM5 Positive): 9.28
Emax (LS174T; Table 2, at the highest tested compound concentration, read-out: LS174T maximal effect compared to untreated controls): -88%
pIC50 (MDA-MB-231): 9.03
pIC50 (SK-CO-1; SK-CO-1, 144 h, Table 2, six days, geometric mean, N ≥ 4, CEACAM5 Positive): 9.60
Emax (SK-CO-1; SK-CO-1, Table 2, at the highest tested compound concentration, read-out: SK-CO-1 maximal effect compared to untreated controls): -99%

Labetuzumab govitecan
stability of the linker structure after parenteral application [1]: significant instability of the linker structure

hmn-14: known anti-CEACAM5 antibody as in labetuzumab govitecan; HC SEQ ID NO: 27, LC SEQ ID NO: 28 [reference compound]
cross-reactivity with CEACAM5 from Macaca fascicularis [2]: not cross-reacting with CEACAM5 from Macaca fascicularis
average binding rate (MKN45 cells; average of the three slopes of the linear part of the curve): 22268±3060
Slope of Curve (MKN45 cells; linear part (700 to 1200 minutes) of fluorescence intensity per cell, 100 nM pHrodo labeled antibody, single wells): 23701 and 24350 and 18754
